One test addresses T1, human TAS2R46 (Homo sapiens, UniProt P59540).
T1 construct: expressed in transfected cells; host or cells: HEK293T-Gα16gust44
T1 sequence (P59540 1-309): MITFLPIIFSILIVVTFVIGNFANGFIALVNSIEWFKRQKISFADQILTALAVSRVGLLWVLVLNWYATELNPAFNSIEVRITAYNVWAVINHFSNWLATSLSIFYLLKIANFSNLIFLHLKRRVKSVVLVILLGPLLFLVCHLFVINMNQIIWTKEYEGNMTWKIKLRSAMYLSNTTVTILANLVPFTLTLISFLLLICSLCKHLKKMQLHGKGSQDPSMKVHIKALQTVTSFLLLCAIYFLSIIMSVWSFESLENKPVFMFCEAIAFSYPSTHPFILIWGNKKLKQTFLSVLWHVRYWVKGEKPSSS
Kind of test: Calcium imaging assay (FLIPR), HEK293T-Gα16gust44 cells transfected with human TAS2R46. It counts as cell-based. The following applies: for Efficacy = maximal amplitude (ΔF/F) / Efficacy (maximal amplitude ΔF/F), individual data points / Δ F/F: TAS2R46; for Efficacy = maximal amplitude (ΔF/F) / Efficacy (maximal amplitude ΔF/F), individual data points: bile acids; for Efficacy = maximal amplitude (ΔF/F): mean; for Efficacy (maximal amplitude ΔF/F), individual data points: single replicates; for Activation threshold concentration TAS2R46: lowest concentration with significantly increased fluorescence vs empty vector (p < 0.01); for Efficacy (signal amplitude) versus control stimulus, TAS2R46: highest applied concentrations, control 10 µM strychnine. Here is the method: This set of bile acids was chosen because of their commercial availability in high purities, their diversity within the class of bile acids and their previous detection and quantitation in human blood. Stock solutions were prepared in DMSO.
As basal growth medium for the HEK293T-Gα16gust44 cell line[17],[59] served Dulbecco’s modified eagle medium (DMEM) (Thermo Fisher Scientific, Darmstadt, Germany) supplemented with 10 % fetal bovine serum (Sigma-Aldrich, Steinheim, Germany), 2 mM L-glutamine (Sigma-Aldrich, Steinheim, Germany), 100 units/ml penicillin (Sigma Aldrich, Steinheim, Germany) and 100 µg/ml streptomycin (Sigma Aldrich, Steinheim, Germany). Growth conditions were 37 °C, 5 % CO2 and saturated air-humidity[60].
HEK293T-Gα16gust44 cells were seeded on poly-D-lysine (10 µg/ml) coated 96-well plates to reach a confluence of 40-60 % the next day. For transient transfection 150 ng of plasmid DNA containing the receptor of interest and 0.3 µl lipofectamine 2000 (Thermo Fisher Scientific, Darmstadt, Germany) per well were used and transfection took place according to the manual of lipofectamine 2000. […] The empty vector DNA (mock) was transfected as negative control[14],[41].
Cells were loaded using the calcium-sensitive fluorescent dye Fluo-4-AM (Abcam, Cambridge, Great Britain) in the presence of 2.5 mM probenecid (Sigma-Aldrich, Steinheim, Germany) the day after transfection[13],[41]. 1 h after loading, cells were washed with C1 buffer using a BioTek Cell Washer, incubated in the dark for half an hour and washed again. For automated agonist application and measurement of fluorescence changes, a FLIPR^TETRA device (Molecular Devices, San José, United States) was used. Viability of cells was tested by application of 100 nM Somatostatin 14 (Bachem, Bubendorf, Switzerland)[42].
Measured data were negative control corrected by subtracting the signal of the mock-transfected cells and exported to Microsoft Excel using the FLIPR software ScreenWorks 4.2. In Microsoft Excel software, standardization of maximum fluorescence intensities to the basal fluorescence and normalization to the buffer-only control was done to calculate the relative fluorescence changes (ΔF/F).
Initial screening experiments performed in duplicate wells were confirmed by at least one replication and representative traces were selected for display. All dose-response relationships were determined by three independent experiments (biological replicates) performed in duplicates (technical replicates). Threshold concentrations, defined as lowest substance concentrations leading to statistically significant elevated fluorescence changes in receptor-transfected cells compared with empty vector-transfected cells, were determined using SigmaPlot with Student’s t-test to evaluate statistical significance (p < 0.01).

Test [1] deals with T2R02 of Latimeria chalumnae. Also noted: method as in PMID 33355666. Conditions: cited from earlier work.

The values below come from article PMC10247784, “Physiological activation of human and mouse bitter taste receptors by bile acids” (Communications Biology, 2023).

SMILES strings stand for the structures. Values joined by “and” are separate entries in the source; they are usually repeats but may differ in a detail not shown here. Equal values may be shown once.

On to `C[C@H](CCC(=O)NCCS(=O)(=O)O)[C@H]1CC[C@H]2[C@@H]3[C@H](O)C[C@@H]4C[C@H](O)CC[C@]4(C)[C@H]3C[C@H](O)[C@]12C` [Taurocholic Acid, taurocholic acid], for which the “Efficacy = maximal amplitude (ΔF/F)” value at human TAS2R46 is 0.03422. In addition, the “Efficacy (maximal amplitude ΔF/F), individual data points” value (shortened to “Efficacy (maximal amplitude ΔF/F)”) on human TAS2R46 (listed as TCA) was 0.02095 and 0.04014 and 0.04158. Further, the “Δ F/F” value on human TAS2R46 (conc. 0,01 mM) is listed as 0.006451; on human TAS2R46 (conc. 0,1 mM), 0.007108; on human TAS2R46 (conc. 0,03 mM) it was 0.004646; on human TAS2R46 (conc. 0,3 mM), 0.00491; on human TAS2R46 (conc. 0,001 mM) it was 0.003048; on human TAS2R46 (conc. 1 mM), 0.03422. Also, the “Δ F/F” value at human TAS2R46 (conc. 0,003 mM) is given as 0.00216. Besides, at human TAS2R46, the “Activation threshold concentration TAS2R46” value worked out at 1000 µM.
As for `C[C@H](CCC(=O)NCC(=O)O)[C@H]1CC[C@H]2[C@@H]3[C@H](O)C[C@@H]4C[C@H](O)CC[C@]4(C)[C@H]3C[C@H](O)[C@]12C` [Glycocholic Acid, glycocholic acid], the “Efficacy = maximal amplitude (ΔF/F)” value on human TAS2R46 is listed as 0.0591. The “Efficacy (maximal amplitude ΔF/F)” value at human TAS2R46 (listed as GCA) is 0.05097 and 0.06295 and 0.06339. In addition, the “Δ F/F” value amounted to 0.003139 on human TAS2R46 (conc. 0,01 mM); 0.004292 at human TAS2R46 (conc. 0,1 mM); 0.007529 on human TAS2R46 (conc. 0,03 mM); 0.01216 at human TAS2R46 (conc. 0,3 mM); 0.002929 at human TAS2R46 (conc. 0,001 mM); 0.0591 at human TAS2R46 (conc. 1 mM). Also, on human TAS2R46 (conc. 0,003 mM), the “Δ F/F” value amounted to 0.003879. Besides, the “Activation threshold concentration TAS2R46” value on human TAS2R46 was 1000 µM. Also, the “Activation of T2R02” value in test [1] was “activate”.
For `C[C@H](CCC(=O)O)[C@H]1CC[C@H]2[C@@H]3[C@H](O)C[C@@H]4C[C@H](O)CC[C@]4(C)[C@H]3CC[C@]12C` [Chenodeoxycholic Acid, chenodeoxycholic acid], the “Activation of T2R02” value in test [1] is listed as “activate”.
For `C[C@H](CCC(=O)NCCS(=O)(=O)O)[C@H]1CC[C@H]2[C@@H]3CC[C@@H]4C[C@H](O)CC[C@]4(C)[C@H]3CC[C@]12C` [Taurolithocholic Acid, taurolithocholic acid], at human TAS2R46, the “Efficacy = maximal amplitude (ΔF/F)” value came out at 0.2226; the “Efficacy (signal amplitude) versus control stimulus, TAS2R46” value is given as “about equal to that obtained for strychnine”; the “Activation threshold concentration TAS2R46” value stood at 0.3 µM. Also, at human TAS2R46 (listed as TLCA), the “Efficacy (maximal amplitude ΔF/F)” value was 0.2236 and 0.2143 and 0.2299; the “Efficacy (signal amplitude) versus control stimulus, TAS2R46” value is “significantly higher than that of TCA and GCA and comparable to the control stimulus strychnine”. Also, on human TAS2R46 (listed as TCLA), the “Efficacy (signal amplitude) versus control stimulus, TAS2R46” value is “full agonist”. Further, the “Activation of T2R02” value in test [1] was “activate”.
In the case of `C[C@H](CCC(=O)O)[C@H]1CC[C@H]2[C@@H]3CC[C@@H]4C[C@H](O)CC[C@]4(C)[C@H]3C[C@H](O)[C@]12C` [Deoxycholic Acid, deoxycholic acid], in test [1], the “Activation of T2R02” value is given as “activate”.
